≈ marks a conversion by molar mass, not a printed value.
How the values were obtained:
Tobacco mosaic virus [1] = assay: Inhibition of Tobacco mosaic virus (TMV) replication using Nicotiana tabacum cv. K326 at 0.2 mg/mL; format: functional
Tobacco mosaic virus [2] = assay: Inhibition of Tobacco mosaic virus (TMV) replication using Nicotiana tabacum cv. K326; format: functional, organism-based

| EC50 (Tobacco mosaic virus [2]) [µg/mL] | Compound | inhibition at 200 µg/mL (Tobacco mosaic virus [1]) [%] |
| --- | --- | --- |
| – | COc1cc(/C=C/C(=O)OC[C@H]2O[C@@H](Oc3ccc([C@@H]4OC[C@@H]5[C@H]4CO[C@H]5c4ccc(O)c(OC)c4)cc3OC)[C@H](O)[C@@H](O)[C@@H]2O)ccc1O [PINORESINOL-4'-O-[6'-O-(E)-FERULOYL]-BETA-D-GLUCOPYRANOSIDE] | 34.3 |
| 180 (≈ 193 µM) | COc1cc(/C=C/C(=O)OC[C@H]2O[C@@H](Oc3c(OC)cc([C@@H]4OC[C@@H]5[C@H]4CO[C@H]5c4cc(OC)c(O)c(OC)c4)cc3OC)[C@H](O)[C@@H](O)[C@@H]2OC(=O)/C=C/c2ccc(O)c(OC)c2)ccc1O [SYRINGARESINOL-4'-O-[4',6'-O-(E)-DIFERULOYL]-BETA-D-GLUCOPYRANOSIDE] | 56.1 |
| 190 (≈ 218 µM) | COc1cc(/C=C/C(=O)OC[C@H]2O[C@@H](Oc3ccc([C@@H]4OC[C@@H]5[C@H]4CO[C@H]5c4ccc(O)c(OC)c4)cc3OC)[C@H](O)[C@@H](O)[C@@H]2OC(=O)/C=C/c2ccc(O)c(OC)c2)ccc1O [PINORESINOL-4'-O-[4',6'-O-(E)-DIFERULOYL]-BETA-D-GLUCOPYRANOSIDE] | 50.3 |
| 240 (≈ 275 µM) | COc1cc(/C=C/C(=O)OC[C@H]2O[C@@H](Oc3ccc([C@@H]4OC[C@@H]5[C@H]4CO[C@H]5c4ccc(O)c(OC)c4)cc3OC)[C@H](O)[C@@H](OC(=O)/C=C/c3ccc(O)c(OC)c3)[C@@H]2O)ccc1O [PINORESINOL-4'-O-[3',6'-O-(E)-DIFERULOYL]-BETA-D-GLUCOPYRANOSIDE] | 47.7 |

From ChEMBL document CHEMBL3044955, “Inhibitory activity against tobacco mosaic virus (TMV) replication of pinoresinol and syringaresinol lignans and their glycosides from the root of Rhus javanica var. roxburghiana” (J Agric Food Chem, 2007)
